Source: patent US10041115B2, “3′-OH unblocked, fast photocleavable terminating nucleotides and methods for nucleic acid sequencing” (LASERGEN, INC., priority 2011, dated 2018)

Assay: Photochemical cleavage assays of incorporated nucleotide analogs (365 nm UV light, DT50)
Type: physicochemical
Settings: for DT50 in 1 mM NaN3, 50 mM DTT / DT50 in 1 mM NaN3, No DTT: 365 nm UV, 0.70 W/cm^2; for DT50 value of ds1 isomer compared with the parent dA.I analog: ds1 isomers of the α-isopropyl C^7-HOMedA set; for faster photochemical cleavage rates of ds2 isomers compared with their ds1 counterparts, factor: ds2 vs ds1 isomer of the same analog; for DT50 values: UV photochemical cleavage experiments
Method: As used herein, the term “DT50” refers to the amount of time required to cleavage 50% of the base analog incorporated in the primer-template complex.
To compare the rates of photochemical cleavage between the nucleotide analogs described here, a protocol was developed to deliver a daily light intensity output of 0.70±0.01 W/cm^2 to samples, see below.
The power supply was turned on for about 30 min prior to that of the lamp and recirculation bath as described by the manufacturer. The IR liquid filter was cooled to 9° C. Light intensity was determined using a model PM100 power meter (Thorlabs), a 1000 μm pinhole (Edmund Optics), a modified 0.5 mL Eppendorf tube cut in half, and a 3-axis manual translation stage (Newport), see FIG. 5. The half cut Eppendorf tube was positioned in front of the pinhole and power meter detector head to account for the geometric shape distortion of the light as it passes through a reaction solution. The translation stage was then used to align the tube/pinhole/detector device with the highest intensity from the arc beam.
To stabilize its output, the lamp was left on for one hour prior to intensity measurements. Thereafter, the measured power was adjusted by increasing the current from the power supply. In order to achieve intensity (I) of 0.70 W/cm^2, the measured power (P) was adjusted to ˜5.5 mW, according to the equation:
[formula] where r is the radius of pinhole.
The beam was then focused by placing an 0.5 mL Eppendorf tube into the sample holder, the tube of which was modified with an internal alignment card to provide reference lines for volume heights of 10 μL and 20 μL, see FIG. 5. The reference lines enabled the beam to be centered for a given reaction volume. Beam alignment was further verified by observing the mercury arc image of the lamp produced by the rear reflector. A second alignment card was placed into the rotating sample holder to view the image, which when properly aligned using the reflector would produce an inverted arc image on the arc gap itself. This step ensured that arc hotspots were not superimposed, which could cause overheating while maintaining a power output of ˜5.5 mW. The speed of the rotating sample holder was adjusted within a range of 1,200-1,350 rpm using a Nova-Strobe DA Plus stroboscope (Monarch Instrument) by adjusting the motor's torque with an adjustment screw.
Photochemical cleavage assays: Nucleotide analogs were incorporated using 10 μL reactions, as described for the PEP assays, at a final concentration of 100 nM. […] OligoTemplate-2, oligoTemplate-5, and oligoTemplate-4 each hybridized with BODIPY-FL labeled primer-1 were used for C^7-HOMedA, C^7-HOMedG, and HOMedU analogs, respectively. OligoTemplate-8 hybridized with BODIPY-FL labeled primer-3 was used to assay HOMedC analogs. Incorporated reactions were quenched with either 1 mM sodium azide solution; 1 mM sodium azide, 50 mM DTT solution; or reagents C-G (see key in FIG. 4), exposed to 365 nm ultraviolet (UV) light for various time points using our UV deprotector, and then placed on ice.

[1] = Table 1, C^7-HOMedA analogs, average ± 1SD, triplicate
[2] = Table 2, C^7-HOMedG analogs, average ± 1SD, triplicate
[3] = α-tert-butyl C^7-HOMedG analogs, ds1 isomers
[4] = Table 3, reversible terminators
[5] = Table 3, reversible terminators, [a] transient product considered as cleaved product

Structure (SMILES)	DT50 in 1 mM NaN3, 50 mM DTT [1] [s]	DT50 in 1 mM NaN3, No DTT [1] [s]	faster photochemical cleavage rates of ds2 isomers compared with their ds1 counterparts, factor [×]	DT50 in 1 mM NaN3, 50 mM DTT [2] [s]	DT50 in 1 mM NaN3, No DTT [2] [s]	other results
CC(C)C(OCc1cn([C@H]2C[C@H](O)[C@@H](COP(=O)(O)OP(=O)(O)OP(=O)(O)O)O2)c2ncnc(N)c12)c1ccccc1[N+](=O)[O-] (single isomer, unassigned) [dA.III.a ds1, 7-[1-(2-nitrophenyl)-2-methyl-propyloxy]methyl-7-deaza-2′-deoxyadenosine-5′-triphosphate]	4.4 ± 0.2	4.5 ± 0.2				DT50 value of ds1 isomer compared with the parent dA.I analog: higher
CC(C)C(OCc1cn([C@H]2C[C@H](O)[C@@H](COP(=O)(O)OP(=O)(O)OP(=O)(O)O)O2)c2ncnc(N)c12)c1ccccc1[N+](=O)[O-] (single isomer, unassigned) [dA.III.a ds2, 7-[1-(2-nitrophenyl)-2-methyl-propyloxy]methyl-7-deaza-2′-deoxyadenosine-5′-triphosphate]	2.1 ± 0.1	2.2 ± 0.1	2.0			
COc1ccc(C(OCc2cn([C@H]3C[C@H](O)[C@@H](COP(=O)(O)OP(=O)(O)OP(=O)(O)O)O3)c3ncnc(N)c23)C(C)C)c([N+](=O)[O-])c1 (single isomer, unassigned) [dA.III.b ds1, 7-[1-(4-methoxy-2-nitrophenyl)-2-methyl-propyloxy]methyl-7-deaza-2′-deoxyadenosine-5′-triphosphate]	6.1 ± 0.4	7.0 ± 0.3				DT50 value of ds1 isomer compared with the parent dA.I analog: higher
COc1ccc(C(OCc2cn([C@H]3C[C@H](O)[C@@H](COP(=O)(O)OP(=O)(O)OP(=O)(O)O)O3)c3ncnc(N)c23)C(C)C)c([N+](=O)[O-])c1 (single isomer, unassigned) [dA.III.b ds2, 7-[1-(4-methoxy-2-nitrophenyl)-2-methyl-propyloxy]methyl-7-deaza-2′-deoxyadenosine-5′-triphosphate]	1.0 ± 0.1	1.1 ± 0.1	6.4			
CC(C)C(OCc1cn([C@H]2C[C@H](O)[C@@H](COP(=O)(O)OP(=O)(O)OP(=O)(O)O)O2)c2ncnc(N)c12)c1c([N+](=O)[O-])cccc1[N+](=O)[O-] (single isomer, unassigned) [dA.III.c ds1, 7-[1-(2,6-dinitrophenyl)-2-methyl-propyloxy]methyl-7-deaza-2′-deoxyadenosine-5′-triphosphate]	3.0 ± 0.2	3.4 ± 0.2				DT50 value of ds1 isomer compared with the parent dA.I analog: similar
CC(C)C(OCc1cn([C@H]2C[C@H](O)[C@@H](COP(=O)(O)OP(=O)(O)OP(=O)(O)O)O2)c2ncnc(N)c12)c1c([N+](=O)[O-])cccc1[N+](=O)[O-] (single isomer, unassigned) [dA.III.c ds2, 7-[1-(2,6-dinitrophenyl)-2-methyl-propyloxy]methyl-7-deaza-2′-deoxyadenosine-5′-triphosphate]	2.5 ± 0.1	2.8 ± 0.2	1.2			
CC(C)(C)C(OCc1cn([C@H]2C[C@H](O)[C@@H](COP(=O)(O)OP(=O)(O)OP(=O)(O)O)O2)c2nc(N)[nH]c(=O)c12)c1ccccc1[N+](=O)[O-] (single isomer, unassigned) [dG.V.a ds2, 7-[1-(2-nitrophenyl)-2,2-dimethyl-propyloxy]methyl-7-deaza-2′-deoxyguanosine-5′-triphosphate]			3.1	3.5 ± 0.3	3.6 ± 0.3	
COc1ccc(C(OCc2cn([C@H]3C[C@H](O)[C@@H](COP(=O)(O)OP(=O)(O)OP(=O)(O)O)O3)c3nc(N)[nH]c(=O)c23)C(C)(C)C)c([N+](=O)[O-])c1 (single isomer, unassigned) [dG.V.b ds1, 7-[1-(4-methoxy-2-nitrophenyl)-2,2-dimethyl-propyloxy]methyl-7-deaza-2′-deoxyguanosine-5′-triphosphate]				4.6 ± 0.3	4.9 ± 0.3	
COc1ccc(C(OCc2cn([C@H]3C[C@H](O)[C@@H](COP(=O)(O)OP(=O)(O)OP(=O)(O)O)O3)c3nc(N)[nH]c(=O)c23)C(C)(C)C)c([N+](=O)[O-])c1 (single isomer, unassigned) [dG.V.b ds2, 7-[1-(4-methoxy-2-nitrophenyl)-2,2-dimethyl-propyloxy]methyl-7-deaza-2′-deoxyguanosine-5′-triphosphate]			4.5	1.3 ± 0.2	1.1 ± 0.1	
COc1ccc([N+](=O)[O-])c(C(OCc2cn([C@H]3C[C@H](O)[C@@H](COP(=O)(O)OP(=O)(O)OP(=O)(O)O)O3)c3nc(N)[nH]c(=O)c23)C(C)(C)C)c1 (single isomer, unassigned) [dG.V.c ds2, 7-[1-(5-methoxy-2-nitrophenyl)-2,2-dimethyl-propyloxy]methyl-7-deaza-2′-deoxyguanosine-5′-triphosphate]			4.4	0.8 ± 0.1	0.8 ± 0.1	DT50 values: 0.8 s; rate increases, dG.V.c compared with dG.V.a (same isomer (ds1 or ds2) of dG.V.c vs dG.V.a): 4.4 ×; faster photochemical cleavage rates compared with the corresponding 4-OMe isomers (α-tert-butyl C^7-HOMedG analogs, 5-OMe vs 4-OMe): 1.4 × fold
COc1cc(C(OCc2cn([C@H]3C[C@H](O)[C@@H](COP(=O)(O)OP(=O)(O)OP(=O)(O)O)O3)c3nc(N)[nH]c(=O)c23)C(C)(C)C)c([N+](=O)[O-])cc1OC (single isomer, unassigned) [dG.V.d ds1, 7-[1-(4,5-dimethoxy-2-nitrophenyl)-2,2-dimethyl-propyloxy]methyl-7-deaza-2′-deoxyguanosine-5′-triphosphate]				2.3 ± 0.2	2.4 ± 0.1	faster cleavage rates compared with mono-substituted 4-OMe isomer [3]: 2.0 ×; faster cleavage rates compared with mono-substituted 5-OMe isomer [3]: 1.5 ×
COc1cc(C(OCc2cn([C@H]3C[C@H](O)[C@@H](COP(=O)(O)OP(=O)(O)OP(=O)(O)O)O3)c3nc(N)[nH]c(=O)c23)C(C)(C)C)c([N+](=O)[O-])cc1OC (single isomer, unassigned) [dG.V.d ds2, 7-[1-(4,5-dimethoxy-2-nitrophenyl)-2,2-dimethyl-propyloxy]methyl-7-deaza-2′-deoxyguanosine-5′-triphosphate]			3.0	0.8 ± 0.1	0.8 ± 0.1	DT50 values: 0.8 s
Nc1ncnc2c1c(COCc1ccccc1[N+](=O)[O-])cn2[C@H]1C[C@H](O)[C@@H](COP(=O)(O)OP(=O)(O)OP(=O)(O)O)O1 [dA.I, 7-(2-nitro-benzyloxy)methyl-7-deaza-2′-deoxyadenosine-5′-triphosphate]	3.5 ± 0.1	3.6 ± 0.1				DT50 in 1 mM NaN3, 50 mM DTT [4]: 3.5 ± 0.1 s; DT50 in 1 mM NaN3, No DTT [5]: 3.6 ± 0.1 s
CC(C)(C)[C@H](OCc1cn([C@H]2C[C@H](O)[C@@H](COP(=O)(O)OP(=O)(O)OP(=O)(O)O)O2)c2ncnc(N)c12)c1ccccc1[N+](=O)[O-] [dA.V, 7-[(S)-1-(2-nitrophenyl)-2,2-dimethyl-propyloxy]methyl-7-deaza-2′-deoxyadenosine-5′-triphosphate]						DT50 in 1 mM NaN3, 50 mM DTT [4]: 2.0 ± 0.2 s; DT50 in 1 mM NaN3, No DTT [5]: 2.1 ± 0.1 s
